Our source for the IC50 and Activity values is ChEMBL document CHEMBL1817586, “N-(1,3-Diaryl-3-oxopropyl)amides as a new template for xanthine oxidase inhibitors” (Bioorg Med Chem, 2011).

The target in experiment [1] is Xanthine dehydrogenase/oxidase (Bos taurus, UniProt P80457). As to the kind of experiment: Inhibition of bovine milk xanthine oxidase assessed as decrease of uric acid formation preincubated for 5 mins by UV-visible spectrophotometric analysis.
Experiment [2] relates to Mus musculus. The experiment is described as follows: Antihyperuricemic activity in Swiss mouse assessed as decrease of potassium oxonate-induced uric acid level in serum at 50 mg/kg, ip after 3 hrs by HPLC analysis (reference value: 7.80 +/- 0.34 uM). It is filed as functional. Conditions: route intraperitoneal.
For experiment [3], the system named is Mus musculus. As to the kind of experiment: Antihyperuricemic activity in Swiss mouse assessed as decrease of potassium oxonate-induced uric acid level in serum at 10 mg/kg, ip after 3 hrs by HPLC analysis (reference value: 7.80 +/- 0.34 uM). It is filed as functional. Conditions: route intraperitoneal.
The test system of experiment [4] is Mus musculus. The experiment is described as follows: Antihyperuricemic activity in Swiss mouse assessed as decrease of potassium oxonate-induced uric acid level in serum at 20 mg/kg, ip after 3 hrs by HPLC analysis (reference value: 7.80 +/- 0.34 uM). It is filed as functional. The note with it: route intraperitoneal.

Sequence of Xanthine dehydrogenase/oxidase (P80457 whole entry): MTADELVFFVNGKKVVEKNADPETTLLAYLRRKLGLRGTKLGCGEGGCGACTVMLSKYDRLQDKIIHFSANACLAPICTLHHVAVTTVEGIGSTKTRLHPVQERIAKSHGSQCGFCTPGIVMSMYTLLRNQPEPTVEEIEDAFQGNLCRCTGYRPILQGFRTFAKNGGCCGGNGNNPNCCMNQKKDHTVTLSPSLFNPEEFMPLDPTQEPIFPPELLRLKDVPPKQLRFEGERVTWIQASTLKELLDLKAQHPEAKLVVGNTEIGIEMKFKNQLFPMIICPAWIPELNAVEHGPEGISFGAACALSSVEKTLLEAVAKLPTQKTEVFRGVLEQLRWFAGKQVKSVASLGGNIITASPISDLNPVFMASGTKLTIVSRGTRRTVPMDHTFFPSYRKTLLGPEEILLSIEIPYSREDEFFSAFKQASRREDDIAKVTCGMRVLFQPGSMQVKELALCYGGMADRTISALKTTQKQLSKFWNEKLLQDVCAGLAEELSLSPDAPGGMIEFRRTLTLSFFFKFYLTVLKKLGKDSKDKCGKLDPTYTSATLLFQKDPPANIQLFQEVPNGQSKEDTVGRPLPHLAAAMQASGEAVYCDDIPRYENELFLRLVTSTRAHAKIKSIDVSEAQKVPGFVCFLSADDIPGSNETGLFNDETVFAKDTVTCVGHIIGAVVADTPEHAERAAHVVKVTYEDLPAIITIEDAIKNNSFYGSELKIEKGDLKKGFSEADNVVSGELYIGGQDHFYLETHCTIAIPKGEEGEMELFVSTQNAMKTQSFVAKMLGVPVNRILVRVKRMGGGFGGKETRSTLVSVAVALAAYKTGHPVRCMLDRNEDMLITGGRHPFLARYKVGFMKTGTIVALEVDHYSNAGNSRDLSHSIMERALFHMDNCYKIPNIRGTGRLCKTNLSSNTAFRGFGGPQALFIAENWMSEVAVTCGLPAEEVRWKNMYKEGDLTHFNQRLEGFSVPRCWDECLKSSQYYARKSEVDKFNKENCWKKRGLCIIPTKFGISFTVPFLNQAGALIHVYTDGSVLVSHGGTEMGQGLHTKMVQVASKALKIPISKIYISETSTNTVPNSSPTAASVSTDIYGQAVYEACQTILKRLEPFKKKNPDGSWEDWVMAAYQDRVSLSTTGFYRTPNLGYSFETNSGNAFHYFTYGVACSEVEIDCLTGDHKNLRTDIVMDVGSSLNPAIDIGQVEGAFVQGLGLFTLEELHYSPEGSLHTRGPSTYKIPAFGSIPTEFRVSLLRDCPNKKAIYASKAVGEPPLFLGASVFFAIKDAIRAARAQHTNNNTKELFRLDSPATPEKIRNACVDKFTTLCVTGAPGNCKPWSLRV

For orientation: IC50 means the concentration needed to halve the response being measured. `CC(=O)NC(CC(=O)c1ccccc1)c1ccccc1` (centres undefined): the IC50 in experiment [1] was 38.3 µM. Same read-out and setting: the figure for `O=C(CC(NC(=O)c1ccccc1)c1ccccc1)c1ccccc1` (centres undefined) is 58.1 µM. On the same count and under the same terms, under `CC(=O)NC(CC(=O)c1ccccc1)c1cccc([N+](=O)[O-])c1` (centres undefined) stands 26.2 µM; under `O=C(CC(NC(=O)c1ccccc1)c1cccc([N+](=O)[O-])c1)c1ccccc1` (centres undefined), 43.6 µM; under `CC(=O)NC(CC(=O)c1ccccc1)c1cccc(Br)c1` (centres undefined), 28.1 µM. Consider `CC(=O)NC(CC(=O)c1ccccc1)c1ccc(Cl)cc1` (centres undefined), for which, in experiment [1], the IC50 is 27.1 µM. Same read-out and setting: under `CC(=O)NC(CC(=O)c1ccccc1)c1ccc(C#N)cc1` (centres undefined) stands 29 µM; under `COc1ccc(C(CC(=O)c2ccccc2)NC(C)=O)cc1` (centres undefined), 45 µM; under `CC(=O)NC(CC(=O)c1ccccc1)c1ccccc1[N+](=O)[O-]` (centres undefined), 32.3 µM. On the same count and under the same terms, under `COc1ccc(C(CC(=O)c2ccccc2)NC(C)=O)cc1OC` (centres undefined) stands 44.3 µM; under `COc1ccc(OC)c(C(CC(=O)c2ccccc2)NC(C)=O)c1` (centres undefined), 44 µM.

Regarding `COc1ccc(C(CC(=O)c2ccccc2)NC(C)=O)c(OC)c1OC` (centres undefined), the IC50 in experiment [1] amounted to 46.1 µM. Still for that read-out and setting: the figure for `COc1cc(C(CC(=O)c2ccccc2)NC(C)=O)cc(OC)c1OC` (centres undefined) is 48.2 µM. `CC(=O)NC(CC(=O)c1ccccc1)c1ccc2ccccc2c1` (centres undefined): the IC50 in experiment [1] came to 53 µM. Still for that read-out and setting: under `C[N+](=O)C(CC(=O)c1ccccc1)c1c2ccccc2cc2ccccc12` (centres undefined) stands 91.6 µM; under `CC(=O)NC(CC(=O)c1ccccc1)c1cccc2ccccc12` (centres undefined), 59 µM. Take `CC(=O)NC(CC(=O)c1ccc2ccccc2c1)c1ccccc1` (centres undefined): the Activity was determined as 4.14 µM with Mus musculus [2], 4.26 µM with Mus musculus [3] and 4.22 µM in the experiment with Mus musculus [4]. Besides, the IC50 in experiment [1] is 8.5 µM. In the same order, the values of `CC(=O)NC(CC(=O)c1ccc2ccccc2c1)c1cccc(Br)c1` (centres undefined) are 2.18 µM, 3.21 µM, 2.96 µM and 2.45 µM. Consider `CC(=O)NC(CC(=O)c1cccc2ccccc12)c1ccccc1` (centres undefined), for which the IC50 in experiment [1] worked out at 40 µM. On the same count and under the same terms, under `CC(=O)NC(CC(=O)c1cccc2ccccc12)c1cccc(Br)c1` (centres undefined) stands 42.2 µM; under `CC(=O)NC(CC(=O)c1cccc2ccccc12)c1cccc([N+](=O)[O-])c1` (centres undefined), 44 µM. Same read-out and setting: the figure for `CC(=O)NC(CC(=O)c1ccc([N+](=O)[O-])cc1)c1ccccc1` (centres undefined) is 48 µM; for `CC(=O)NC(CC(=O)c1ccc([N+](=O)[O-])cc1)c1ccc(Cl)cc1` (centres undefined) it is 45.4 µM; for `COc1ccc(C(CC(=O)c2ccc([N+](=O)[O-])cc2)NC(C)=O)cc1` (centres undefined) it is 52.6 µM. Take `CC(=O)NC(CC(=O)c1ccc(Cl)cc1)c1ccccc1` (centres undefined): the IC50 in experiment [1] came out at 42 µM. On the same count and under the same terms, under `CC(=O)NC(CC(=O)c1ccc(Cl)cc1)c1ccc(C)cc1` (centres undefined) stands 44.6 µM; under `CC(=O)NC(CC(=O)c1ccc(Cl)cc1)c1ccc(Cl)cc1` (centres undefined), 41 µM. On the same count and under the same terms, the figure for `COc1ccc(OC)c(C(CC(=O)c2cccc(NC(C)=O)c2)NC(C)=O)c1` (centres undefined) is 43.2 µM. On the same count and under the same terms, under `CC(=O)Nc1cccc(C(=O)CC(NC(C)=O)c2cccc([N+](=O)[O-])c2)c1` (centres undefined) stands 32 µM. Take `CC(=O)Nc1cccc(C(=O)CC(NC(C)=O)c2ccc(Cl)cc2)c1` (centres undefined): the IC50 in experiment [1] was determined as 41.8 µM.

As for `CC(=O)NC(CC(=O)c1ccccc1)c1ccco1` (centres undefined), the IC50 in experiment [1] came to 63 µM. Regarding `CC(=O)NC(CC(=O)c1ccccc1)c1cccs1` (centres undefined), the IC50 in experiment [1] amounted to 65 µM. As for `CC(=O)NC(CC(=O)c1ccco1)c1cccc([N+](=O)[O-])c1` (centres undefined), the Activity in the experiment on Mus musculus [2] turned out to be 6.98 µM; in the experiment on Mus musculus [3], 7.13 µM; in the experiment on Mus musculus [4] it was 7.01 µM. Further, in experiment [1], the IC50 came out at 15.2 µM. On to `COc1ccc(OC)c(C(CC(=O)c2cc(Cl)cs2)NC(C)=O)c1` (centres undefined), for which, in experiment [1], the IC50 stood at 20 µM. Same read-out and setting: under `CC(=O)NC(CC(=O)c1cc(Cl)cs1)c1ccc(Cl)cc1` (centres undefined) stands 22 µM.

As for `CC(=O)NC(CC(=O)c1ccco1)c1ccccc1` (centres undefined), the IC50 in experiment [1] was 26 µM. The same measure, in the same setting: the figure for `CC(=O)NC(CC(=O)c1cccs1)c1ccccc1` (centres undefined) is 27 µM; for `CC(=O)NC(CC(=O)c1cc(C)sc1C)c1cccc([N+](=O)[O-])c1` (centres undefined) it is 19.8 µM; for `CC(=O)NC(CC(=O)c1cc(C)sc1C)c1ccc(Cl)cc1` (centres undefined) it is 21.7 µM. Same read-out and setting: under `CC(=O)NC(/C=C/c1ccccc1)CC(=O)c1ccccc1` (centres undefined) stands 78.3 µM; under `CC(=O)Nc1cccc(C(=O)CC(/C=C/c2ccccc2)NC(C)=O)c1` (centres undefined), 69.2 µM; under `CC(=O)NC(CC(=O)c1ccccc1)c1ccc([N+](=O)[O-])cc1` (centres undefined), 28.5 µM. Regarding `Oc1ncnc2[nH]ncc12` [ALLOPURINOL], the Activity in the experiment on Mus musculus [2] amounted to 2.17 µM; with Mus musculus [3], 3.19 µM; in the experiment with Mus musculus [4] it was 2.93 µM.
